In paper PMC3968014, “Design and Synthesis of a Library of Lead-Like 2,4-Bisheterocyclic Substituted Thiophenes as Selective Dyrk/Clk Inhibitors” (PLoS ONE, 2014):

Tests used:
[1] = target: T1, ABL1 (Homo sapiens, UniProt P00519); experiment: Selectivity panel ABL1; assay type: biochemical; conditions: 5 µM inhibitor
T1 construct: purchased Life Technologies (Invitrogen SelectScreen); Dyrk1A, Dyrk2 and CK2α in-house or gifts

[2] = target: T2, PLK2/SNK (Homo sapiens, UniProt Q9NYY3); experiment: Selectivity panel PLK2/SNK; assay type: biochemical; conditions: 5 µM inhibitor
T2 construct: purchased Life Technologies (Invitrogen SelectScreen); Dyrk1A, Dyrk2 and CK2α in-house or gifts

[3] = target: T3, DYRK4 (Homo sapiens, UniProt Q9NR20); experiment: Selectivity panel DYRK4; assay type: biochemical; conditions: 5 µM inhibitor
T3 construct: purchased Life Technologies (Invitrogen SelectScreen); Dyrk1A, Dyrk2 and CK2α in-house or gifts

[4] = target: T4, TBK1 (Homo sapiens, UniProt Q9UHD2); experiment: Selectivity panel TBK1; assay type: biochemical; conditions: 5 µM inhibitor
T4 construct: purchased Life Technologies (Invitrogen SelectScreen); Dyrk1A, Dyrk2 and CK2α in-house or gifts

[5] = tested on: V79 hamster lung fibroblast cells; experiment: ViaLight Toxicity Assay; assay type: cell-based; conditions: V79 cells, 5 µM, 48 hours
Experimental: V79 hamster lung fibroblast cells were plated at a density of 45,000 cells per well in a white 96 well plate and allowed to adhere and grow for 24 hours. The compounds were then applied as dilutions in cell culture medium (DMEM with 10% FCS and penicillin/streptomycin mix) at a final concentration of 5, 10, and 20 µM, respectively. The plate was further incubated for 48 hours at 37°C in a humidified atmosphere containing 5% CO2. The ATP level was detected with a LONZA ViaLight™ Plus Kit according to protocol 1 of the vendor's instructions. Luminescence was measured in a POLARstar plate reader (BMG Labtech, Offenburg, Germany). The background luminescence was obtained from equally treated, cell-free wells containing serum, and subtracted from all values. Inhibition values obtained for different compound concentrations were compared using the two-sided Student's t-test; levels of significance thus obtained are indicated by asterisks.

[6] = target: T5, STK22B (TSSK2) (Homo sapiens, UniProt Q96PF2); experiment: Selectivity panel STK22B; assay type: biochemical; conditions: 5 µM inhibitor
T5 construct: purchased Life Technologies (Invitrogen SelectScreen); Dyrk1A, Dyrk2 and CK2α in-house or gifts

[7] = target: T6, MAP3K5 (ASK1) (Homo sapiens, UniProt Q99683); experiment: Selectivity panel MAP3K5; assay type: biochemical; conditions: 5 µM inhibitor
T6 construct: purchased Life Technologies (Invitrogen SelectScreen); Dyrk1A, Dyrk2 and CK2α in-house or gifts

[8] = target: T7, STK23 (MSSK1) (Homo sapiens, UniProt Q9UPE1); experiment: Selectivity panel STK23; assay type: biochemical; conditions: 5 µM inhibitor
T7 construct: purchased Life Technologies (Invitrogen SelectScreen); Dyrk1A, Dyrk2 and CK2α in-house or gifts

[9] = target: T8, PAK4 (Homo sapiens, UniProt O96013); experiment: Selectivity panel PAK4; assay type: biochemical; conditions: 5 µM inhibitor
T8 construct: purchased Life Technologies (Invitrogen SelectScreen); Dyrk1A, Dyrk2 and CK2α in-house or gifts

[10] = target: T9, PIK3CA/PIK3R1 (Homo sapiens, UniProt P42336); experiment: Selectivity panel PIK3CA/PIK3R1; assay type: biochemical; conditions: 5 µM inhibitor
T9 construct: purchased Life Technologies (Invitrogen SelectScreen); Dyrk1A, Dyrk2 and CK2α in-house or gifts

[11] = target: T10, NEK7 (Homo sapiens, UniProt Q8TDX7); experiment: Selectivity panel NEK7; assay type: biochemical; conditions: 5 µM inhibitor
T10 construct: purchased Life Technologies (Invitrogen SelectScreen); Dyrk1A, Dyrk2 and CK2α in-house or gifts

[12] = target: T11, CLK4 (Homo sapiens, UniProt Q9HAZ1); experiment: Selectivity panel CLK4; assay type: biochemical; conditions: 5 µM inhibitor
T11 construct: purchased Life Technologies (Invitrogen SelectScreen); Dyrk1A, Dyrk2 and CK2α in-house or gifts

[13] = target: T12, EPHB3 (Homo sapiens, UniProt P54753); experiment: Selectivity panel EPHB3; assay type: biochemical; conditions: 5 µM inhibitor
T12 construct: purchased Life Technologies (Invitrogen SelectScreen); Dyrk1A, Dyrk2 and CK2α in-house or gifts

[14] = target: T13, MINK1 (Homo sapiens, UniProt Q8N4C8); experiment: Selectivity panel MINK1; assay type: biochemical; conditions: 5 µM inhibitor
T13 construct: purchased Life Technologies (Invitrogen SelectScreen); Dyrk1A, Dyrk2 and CK2α in-house or gifts

[15] = target: T14, WEE1 (Homo sapiens, UniProt P30291); experiment: Selectivity panel WEE1; assay type: biochemical; conditions: 5 µM inhibitor
T14 construct: purchased Life Technologies (Invitrogen SelectScreen); Dyrk1A, Dyrk2 and CK2α in-house or gifts

[16] = target: T15, NEK1 (Homo sapiens, UniProt Q96PY6); experiment: Selectivity panel NEK1; assay type: biochemical; conditions: 5 µM inhibitor
T15 construct: purchased Life Technologies (Invitrogen SelectScreen); Dyrk1A, Dyrk2 and CK2α in-house or gifts

[17] = target: T16, FYN (Homo sapiens, UniProt P06241); experiment: Selectivity panel FYN; assay type: biochemical; conditions: 5 µM inhibitor
T16 construct: purchased Life Technologies (Invitrogen SelectScreen); Dyrk1A, Dyrk2 and CK2α in-house or gifts

[18] = target: T17, MAPK10 (JNK3) (Homo sapiens, UniProt P53779); experiment: Selectivity panel MAPK10; assay type: biochemical; conditions: 5 µM inhibitor
T17 construct: purchased Life Technologies (Invitrogen SelectScreen); Dyrk1A, Dyrk2 and CK2α in-house or gifts

[19] = target: T18, JAK2 (Homo sapiens, UniProt O60674); experiment: Selectivity panel JAK2; assay type: biochemical; conditions: 5 µM inhibitor
T18 construct: purchased Life Technologies (Invitrogen SelectScreen); Dyrk1A, Dyrk2 and CK2α in-house or gifts

[20] = target: T19, RET (Homo sapiens, UniProt P07949); experiment: Selectivity panel RET; assay type: biochemical; conditions: 5 µM inhibitor
T19 construct: purchased Life Technologies (Invitrogen SelectScreen); Dyrk1A, Dyrk2 and CK2α in-house or gifts

[21] = target: T20, LYN A (Homo sapiens, UniProt P07948); experiment: Selectivity panel LYN A; assay type: biochemical; conditions: 5 µM inhibitor
T20 construct: purchased Life Technologies (Invitrogen SelectScreen); Dyrk1A, Dyrk2 and CK2α in-house or gifts

[22] = target: T21, MAPK1 (ERK2) (Homo sapiens, UniProt P28482); experiment: Selectivity panel MAPK1; assay type: biochemical; conditions: 5 µM inhibitor
T21 construct: purchased Life Technologies (Invitrogen SelectScreen); Dyrk1A, Dyrk2 and CK2α in-house or gifts

[23] = target: T22, AKT1 (PKB alpha) (Homo sapiens, UniProt P31749); experiment: Selectivity panel AKT1; assay type: biochemical; conditions: 5 µM inhibitor
T22 construct: purchased Life Technologies (Invitrogen SelectScreen); Dyrk1A, Dyrk2 and CK2α in-house or gifts

[24] = tested on: U2OS osteosarcoma cells; experiment: ROS Assay (dihydroethidium); assay type: cell-based; conditions: 48 hours
Experimental: U2OS osteosarcoma cells were plated on six well cell culture plates (5*10^5 cells/well). […]. Cells were washed with phosphate–buffered saline (PBS) and incubated for 30 min at 37°C in the dark with 10 µM dihydroethidium (DHE) in PBS and washed with PBS. The cells were then trypsinized, collected by centrifugation, and lysed with lysis buffer (100 mM Tris/HCl, pH 7.3, 2 mM EGTA, 2% Triton X100). The amount of ethidium produced by reactive oxygen species (ROS) was quantified by measuring the fluorescence (Ex485, Em620) in a POLARstar plate reader (BMG Labtech, Offenburg, Germany). Values obtained for different compound concentrations were compared using the two-sided Student's t-test; levels of significance thus obtained are indicated by asterisks.

T15 sequence (Q96PY6 whole entry): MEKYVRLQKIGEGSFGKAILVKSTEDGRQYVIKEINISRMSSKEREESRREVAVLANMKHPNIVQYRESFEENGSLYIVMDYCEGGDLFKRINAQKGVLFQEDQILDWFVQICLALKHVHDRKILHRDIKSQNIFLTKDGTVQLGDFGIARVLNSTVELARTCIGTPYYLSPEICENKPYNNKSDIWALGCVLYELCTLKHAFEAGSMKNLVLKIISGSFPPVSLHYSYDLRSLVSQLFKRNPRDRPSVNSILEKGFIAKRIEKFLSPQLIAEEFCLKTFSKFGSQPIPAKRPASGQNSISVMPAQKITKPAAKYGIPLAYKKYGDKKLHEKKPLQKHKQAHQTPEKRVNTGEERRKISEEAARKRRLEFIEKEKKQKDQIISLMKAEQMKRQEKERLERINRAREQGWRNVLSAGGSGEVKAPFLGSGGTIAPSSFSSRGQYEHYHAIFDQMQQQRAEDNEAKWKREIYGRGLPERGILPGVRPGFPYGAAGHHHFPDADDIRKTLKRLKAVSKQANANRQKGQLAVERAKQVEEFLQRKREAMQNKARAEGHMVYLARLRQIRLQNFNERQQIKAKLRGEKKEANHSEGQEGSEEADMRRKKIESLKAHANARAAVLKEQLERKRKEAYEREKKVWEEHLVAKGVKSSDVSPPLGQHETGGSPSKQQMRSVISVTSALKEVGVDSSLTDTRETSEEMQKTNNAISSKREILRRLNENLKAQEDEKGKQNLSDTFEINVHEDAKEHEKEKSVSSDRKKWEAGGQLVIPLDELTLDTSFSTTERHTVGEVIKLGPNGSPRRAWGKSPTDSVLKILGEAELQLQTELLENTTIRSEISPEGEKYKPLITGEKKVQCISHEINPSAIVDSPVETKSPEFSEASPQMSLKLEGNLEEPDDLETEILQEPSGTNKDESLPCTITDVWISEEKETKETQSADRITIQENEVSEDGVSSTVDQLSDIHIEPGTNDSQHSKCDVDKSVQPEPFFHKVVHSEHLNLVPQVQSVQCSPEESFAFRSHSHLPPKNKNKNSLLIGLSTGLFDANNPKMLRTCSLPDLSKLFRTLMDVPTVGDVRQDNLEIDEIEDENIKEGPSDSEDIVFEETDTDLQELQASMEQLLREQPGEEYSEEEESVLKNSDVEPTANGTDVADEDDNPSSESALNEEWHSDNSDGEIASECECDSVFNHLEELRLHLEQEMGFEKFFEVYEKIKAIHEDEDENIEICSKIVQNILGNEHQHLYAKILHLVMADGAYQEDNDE
T13 sequence (Q8N4C8 whole entry): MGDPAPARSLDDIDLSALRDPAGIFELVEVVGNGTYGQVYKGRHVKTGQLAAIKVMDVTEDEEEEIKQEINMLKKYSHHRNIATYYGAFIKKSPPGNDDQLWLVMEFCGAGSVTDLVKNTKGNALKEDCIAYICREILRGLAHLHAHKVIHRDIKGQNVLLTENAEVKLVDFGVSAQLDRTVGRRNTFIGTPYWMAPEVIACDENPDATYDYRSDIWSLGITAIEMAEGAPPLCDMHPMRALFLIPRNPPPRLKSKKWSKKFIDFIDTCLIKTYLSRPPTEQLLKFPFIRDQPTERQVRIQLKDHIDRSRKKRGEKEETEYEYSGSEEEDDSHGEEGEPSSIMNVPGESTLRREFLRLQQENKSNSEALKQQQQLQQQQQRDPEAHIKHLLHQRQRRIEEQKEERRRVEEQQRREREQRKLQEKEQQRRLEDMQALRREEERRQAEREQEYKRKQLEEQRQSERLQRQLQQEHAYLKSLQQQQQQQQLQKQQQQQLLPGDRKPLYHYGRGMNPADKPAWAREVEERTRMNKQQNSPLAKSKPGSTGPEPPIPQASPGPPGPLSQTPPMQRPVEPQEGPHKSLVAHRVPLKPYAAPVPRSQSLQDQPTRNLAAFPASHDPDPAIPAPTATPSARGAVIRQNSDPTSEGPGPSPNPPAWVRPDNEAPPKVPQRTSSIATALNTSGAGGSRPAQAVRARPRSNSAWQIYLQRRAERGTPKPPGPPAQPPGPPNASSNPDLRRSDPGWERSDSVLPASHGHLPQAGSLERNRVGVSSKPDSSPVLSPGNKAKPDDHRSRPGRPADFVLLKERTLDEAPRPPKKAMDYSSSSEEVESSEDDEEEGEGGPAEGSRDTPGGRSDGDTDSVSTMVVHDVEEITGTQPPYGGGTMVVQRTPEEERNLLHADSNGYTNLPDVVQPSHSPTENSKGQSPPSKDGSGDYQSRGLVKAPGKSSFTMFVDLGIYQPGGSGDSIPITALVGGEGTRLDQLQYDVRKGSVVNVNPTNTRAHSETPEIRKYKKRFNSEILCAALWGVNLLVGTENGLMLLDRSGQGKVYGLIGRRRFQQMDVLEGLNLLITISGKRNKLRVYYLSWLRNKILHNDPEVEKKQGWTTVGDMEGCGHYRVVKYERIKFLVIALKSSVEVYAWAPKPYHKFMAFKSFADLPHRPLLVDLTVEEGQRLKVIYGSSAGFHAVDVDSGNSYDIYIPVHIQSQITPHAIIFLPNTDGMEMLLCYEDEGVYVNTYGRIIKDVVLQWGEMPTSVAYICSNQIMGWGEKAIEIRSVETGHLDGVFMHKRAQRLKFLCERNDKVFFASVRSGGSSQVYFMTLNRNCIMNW
T1 sequence (P00519 whole entry): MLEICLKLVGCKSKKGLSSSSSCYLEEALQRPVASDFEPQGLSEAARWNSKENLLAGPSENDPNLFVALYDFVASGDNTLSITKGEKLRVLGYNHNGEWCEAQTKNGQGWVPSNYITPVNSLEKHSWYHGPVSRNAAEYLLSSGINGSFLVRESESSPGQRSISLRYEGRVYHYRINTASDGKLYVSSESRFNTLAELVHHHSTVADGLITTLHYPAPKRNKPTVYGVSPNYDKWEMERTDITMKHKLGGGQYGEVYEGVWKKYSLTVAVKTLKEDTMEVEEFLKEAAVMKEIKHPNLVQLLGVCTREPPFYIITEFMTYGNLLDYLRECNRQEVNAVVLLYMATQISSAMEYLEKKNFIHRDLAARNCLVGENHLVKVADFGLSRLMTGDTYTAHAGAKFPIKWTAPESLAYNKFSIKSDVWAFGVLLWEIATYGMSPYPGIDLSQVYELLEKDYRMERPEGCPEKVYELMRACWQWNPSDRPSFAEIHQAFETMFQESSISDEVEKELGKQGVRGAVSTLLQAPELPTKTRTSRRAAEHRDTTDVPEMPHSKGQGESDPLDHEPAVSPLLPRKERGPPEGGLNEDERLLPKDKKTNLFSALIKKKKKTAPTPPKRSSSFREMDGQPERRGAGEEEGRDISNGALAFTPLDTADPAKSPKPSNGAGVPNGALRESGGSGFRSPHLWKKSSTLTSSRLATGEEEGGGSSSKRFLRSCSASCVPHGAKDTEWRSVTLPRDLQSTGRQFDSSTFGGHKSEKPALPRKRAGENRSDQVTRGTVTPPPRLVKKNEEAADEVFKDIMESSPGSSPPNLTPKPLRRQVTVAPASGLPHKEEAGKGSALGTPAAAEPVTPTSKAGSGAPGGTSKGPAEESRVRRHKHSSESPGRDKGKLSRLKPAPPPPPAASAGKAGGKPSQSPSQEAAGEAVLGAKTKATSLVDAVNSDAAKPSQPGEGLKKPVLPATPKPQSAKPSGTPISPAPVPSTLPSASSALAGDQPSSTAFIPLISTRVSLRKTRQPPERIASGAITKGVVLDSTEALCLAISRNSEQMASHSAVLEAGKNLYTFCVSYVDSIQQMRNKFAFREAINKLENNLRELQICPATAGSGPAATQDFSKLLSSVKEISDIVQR
T2 sequence (Q9NYY3 whole entry): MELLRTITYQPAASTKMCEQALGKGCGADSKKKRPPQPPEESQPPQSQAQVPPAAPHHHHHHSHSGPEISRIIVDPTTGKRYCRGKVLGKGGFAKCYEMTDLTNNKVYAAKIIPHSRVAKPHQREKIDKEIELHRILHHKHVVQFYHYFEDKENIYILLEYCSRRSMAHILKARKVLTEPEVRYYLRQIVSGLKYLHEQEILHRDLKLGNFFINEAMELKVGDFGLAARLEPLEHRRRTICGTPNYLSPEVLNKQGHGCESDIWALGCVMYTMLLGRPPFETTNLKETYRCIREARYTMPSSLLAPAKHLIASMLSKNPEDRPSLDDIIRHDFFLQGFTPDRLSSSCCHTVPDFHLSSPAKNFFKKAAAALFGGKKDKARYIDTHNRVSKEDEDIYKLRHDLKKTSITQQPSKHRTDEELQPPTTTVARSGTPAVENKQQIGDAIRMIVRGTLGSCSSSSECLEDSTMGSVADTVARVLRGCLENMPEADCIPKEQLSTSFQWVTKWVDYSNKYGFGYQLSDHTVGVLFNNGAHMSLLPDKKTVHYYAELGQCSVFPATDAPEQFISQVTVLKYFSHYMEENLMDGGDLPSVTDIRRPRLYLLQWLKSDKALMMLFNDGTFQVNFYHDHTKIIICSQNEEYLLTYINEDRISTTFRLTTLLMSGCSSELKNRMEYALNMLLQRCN
T7 sequence (Q9UPE1 whole entry): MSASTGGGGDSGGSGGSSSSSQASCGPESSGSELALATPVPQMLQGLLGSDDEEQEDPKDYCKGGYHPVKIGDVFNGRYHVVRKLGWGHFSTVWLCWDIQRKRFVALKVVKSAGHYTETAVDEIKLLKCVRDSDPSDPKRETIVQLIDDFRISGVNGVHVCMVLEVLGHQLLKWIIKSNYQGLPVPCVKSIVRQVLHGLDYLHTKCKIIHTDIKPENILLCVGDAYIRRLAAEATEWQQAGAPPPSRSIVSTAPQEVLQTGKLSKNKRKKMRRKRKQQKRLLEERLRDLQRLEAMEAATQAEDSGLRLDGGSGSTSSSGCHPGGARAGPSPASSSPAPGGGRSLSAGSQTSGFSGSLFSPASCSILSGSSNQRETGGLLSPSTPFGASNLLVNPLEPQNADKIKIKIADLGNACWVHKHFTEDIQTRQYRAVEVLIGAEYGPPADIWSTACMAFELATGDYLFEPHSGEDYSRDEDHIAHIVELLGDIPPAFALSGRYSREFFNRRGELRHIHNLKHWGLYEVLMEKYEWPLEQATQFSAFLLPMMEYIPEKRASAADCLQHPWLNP

In the case of c1cncc(-c2csc(-c3cncs3)c2)c1 [Compound 48, 3-[5-(1,3-thiazol-5-yl)thiophen-3-yl]pyridine], the inhibition at 5 µM [1] is reported as 6%, the inhibition at 5 µM [2] is reported as 1% and the inhibition at 5 µM [3] is reported as 12%. The inhibition at 5 µM [4] was 8%, the “influence on cell viability (cellular ATP levels)” value [5] was “no influence on cell viability” and the inhibition at 5 µM [6] was -2%. The inhibition at 5 µM [7] was 6%, the inhibition at 5 µM [8] was 0% and the inhibition at 5 µM [9] was 4%. It also gave an inhibition at 5 µM [10] of 12%, an inhibition at 5 µM [11] of -7% and an inhibition at 5 µM [12] of 99%. For the same compound, the inhibition at 5 µM [13] was 1%, the inhibition at 5 µM [14] was 19% and the inhibition at 5 µM [15] was 10%. For the same compound, the inhibition at 5 µM [16] was -5%, the inhibition at 5 µM [17] was 0% and the inhibition at 5 µM [18] was 2%. The inhibition at 5 µM [19] was -4%, the inhibition at 5 µM [20] was 1% and the inhibition at 5 µM [21] was 13%. For the same compound, the inhibition at 5 µM [22] was 1% and the inhibition at 5 µM [23] was 3%.
Compound c1cncc(-c2cc(-c3cncs3)cs2)c1 [Compound 29, 3-[4-(1,3-thiazol-5-yl)thiophen-2-yl]pyridine] has an inhibition at 5 µM [1] of 2%, an inhibition at 5 µM [2] of -3% and an inhibition at 5 µM [3] of 13%. For the same compound, the inhibition at 5 µM [4] was 3%, the “influence on cell viability (cellular ATP levels)” value [5] was “no influence on cell viability” and the inhibition at 5 µM [6] was -2%. The inhibition at 5 µM [7] was 4%, the inhibition at 5 µM [8] was 2% and the inhibition at 5 µM [9] was 3%. For the same compound, the inhibition at 5 µM [10] was 21%, the inhibition at 5 µM [11] was 0% and the inhibition at 5 µM [12] was 105%. It also gave an inhibition at 5 µM [13] of 0%, an inhibition at 5 µM [14] of 36% and an inhibition at 5 µM [15] of 17%. It also gave an inhibition at 5 µM [16] of 3%, an inhibition at 5 µM [17] of -2% and an inhibition at 5 µM [18] of 4%. For the same compound, the “concentration at which enhancement of reporter dye fluorescence (ROS) starts” value [24] was 0.2 µM, the inhibition at 5 µM [19] was -2% and the inhibition at 5 µM [20] was -1%. For the same compound, the inhibition at 5 µM [21] was 16%, the inhibition at 5 µM [22] was -6% and the inhibition at 5 µM [23] was 9%.
